Laboratory results from article PMC3004914, “Classification of Drugs Based on Properties of Sodium Channel Inhibition: A Comparative Automated Patch-Clamp Study” (PLoS ONE, 2010).
pKd, pKi: −log10 of the molar value. Where two headings read alike, the source gives them in different places.

Legend:
[1] = molecular target: T1, rNav1.2 sodium channels (HEK-293 cells) (Rattus norvegicus, UniProt P04775); assay: 5 Hz train protocol, QPatch automated patch-clamp; assay type: cell-based; conditions: for τoff: 500 s assigned where irreversible; for Rev (reversibility): Rev = A5/A1 after washout; for potency estimated from few doses: −90 mV;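 as to UD (use-dependence of the inhibition): UD = (A3/A4)/(A1/A2) as ratios of peak amplitudes from Figure 1A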
T1 sequence (P04775 whole entry): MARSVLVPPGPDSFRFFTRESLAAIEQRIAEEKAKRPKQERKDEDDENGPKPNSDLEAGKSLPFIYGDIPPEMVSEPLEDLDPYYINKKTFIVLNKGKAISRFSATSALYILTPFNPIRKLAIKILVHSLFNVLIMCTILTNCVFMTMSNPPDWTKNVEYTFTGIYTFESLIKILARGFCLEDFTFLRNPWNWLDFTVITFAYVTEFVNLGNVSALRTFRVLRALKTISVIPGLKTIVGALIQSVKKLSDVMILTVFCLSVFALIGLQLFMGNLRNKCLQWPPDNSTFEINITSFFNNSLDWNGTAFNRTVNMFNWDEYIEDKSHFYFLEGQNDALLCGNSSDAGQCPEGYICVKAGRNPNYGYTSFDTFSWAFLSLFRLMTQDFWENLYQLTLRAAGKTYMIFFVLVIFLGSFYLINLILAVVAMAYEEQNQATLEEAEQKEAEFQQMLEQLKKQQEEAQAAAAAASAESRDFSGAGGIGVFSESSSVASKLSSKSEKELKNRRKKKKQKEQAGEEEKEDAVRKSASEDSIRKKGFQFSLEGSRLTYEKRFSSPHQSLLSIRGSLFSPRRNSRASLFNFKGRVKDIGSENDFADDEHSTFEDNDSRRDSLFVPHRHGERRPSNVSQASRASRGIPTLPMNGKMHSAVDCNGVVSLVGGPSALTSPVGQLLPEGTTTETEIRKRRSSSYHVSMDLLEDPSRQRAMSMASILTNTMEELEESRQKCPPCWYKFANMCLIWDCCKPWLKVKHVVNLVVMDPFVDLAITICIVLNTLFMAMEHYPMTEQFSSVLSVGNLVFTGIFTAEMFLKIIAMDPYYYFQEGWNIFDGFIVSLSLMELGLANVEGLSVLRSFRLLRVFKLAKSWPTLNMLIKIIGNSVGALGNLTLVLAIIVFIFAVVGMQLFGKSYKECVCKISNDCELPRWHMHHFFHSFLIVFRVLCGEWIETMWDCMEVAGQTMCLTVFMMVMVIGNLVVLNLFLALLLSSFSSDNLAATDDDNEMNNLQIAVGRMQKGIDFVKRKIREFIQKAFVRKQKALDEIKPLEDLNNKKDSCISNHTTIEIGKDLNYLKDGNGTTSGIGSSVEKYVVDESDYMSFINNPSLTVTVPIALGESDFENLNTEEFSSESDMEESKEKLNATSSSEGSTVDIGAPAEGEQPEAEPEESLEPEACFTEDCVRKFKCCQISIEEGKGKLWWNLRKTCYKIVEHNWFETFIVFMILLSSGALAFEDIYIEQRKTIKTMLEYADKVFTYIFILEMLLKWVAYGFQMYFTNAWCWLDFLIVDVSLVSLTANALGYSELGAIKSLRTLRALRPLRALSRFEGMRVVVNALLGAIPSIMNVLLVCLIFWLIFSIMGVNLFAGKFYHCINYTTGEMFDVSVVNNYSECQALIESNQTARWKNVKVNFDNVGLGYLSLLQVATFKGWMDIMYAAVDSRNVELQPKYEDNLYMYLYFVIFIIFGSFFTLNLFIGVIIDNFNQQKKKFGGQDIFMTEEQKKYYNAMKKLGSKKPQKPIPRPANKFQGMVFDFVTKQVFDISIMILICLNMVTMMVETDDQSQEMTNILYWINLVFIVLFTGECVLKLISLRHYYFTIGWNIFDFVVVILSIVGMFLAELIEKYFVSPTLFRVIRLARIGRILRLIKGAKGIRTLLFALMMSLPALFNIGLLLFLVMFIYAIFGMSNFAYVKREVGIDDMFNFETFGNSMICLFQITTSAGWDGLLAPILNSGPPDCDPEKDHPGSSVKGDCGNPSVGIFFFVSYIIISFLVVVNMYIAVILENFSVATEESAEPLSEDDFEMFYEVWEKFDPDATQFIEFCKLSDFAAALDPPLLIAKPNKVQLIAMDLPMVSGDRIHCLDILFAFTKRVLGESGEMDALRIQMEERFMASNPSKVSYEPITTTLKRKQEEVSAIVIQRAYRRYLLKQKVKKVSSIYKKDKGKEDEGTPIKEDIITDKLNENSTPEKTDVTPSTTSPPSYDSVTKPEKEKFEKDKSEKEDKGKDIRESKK
Source text: The dynamics of the onset and offset of inhibition was monitored using 5 Hz trains of five depolarizing pulses from a holding potential of −90 mV to −10 mV. The trains were repeated every 20 s. Drugs were applied after 10 control trains and 10 trains were delivered in the presence of the drug. The drug was then washed out, and the 10 trains were repeated.
We measured inhibition (Inh; from which we calculated IC50 values as described in Materials and Methods), reversibility of inhibition (Rev) and use-dependence (UD), as well as time constant of onset (τon) and offset (τoff). The calculation of IC50, quantification of Rev and UD, and the determination of time constants are illustrated in Figure 1A. Because τon should be concentration-dependent if we assume a single binding reaction, we excluded it from the analyses. […] Comments on the interpretation of these properties (Rev, […] and UD) are in Results S1.
(§1) A)–D) Peak amplitudes of evoked currents (5 Hz trains of 5 depolarizations from −90 to −10 mV) are plotted against time. Black dots: Control. Grey dots: Drug perfusion. […] Calculation of properties of inhibition is illustrated. […] E) Calculation of Kr and Ki values from steady-state availability curves.
(§2) HEK-293 cells stably expressing rNav1.2 sodium channels were obtained from NeuroSearch (Ballerup, Denmark).
(§3) Cells were automatically prepared for application to the chips (centrifuged and washed twice, then resuspended in extracellular solution) as described previously. Composition of the extracellular solution was: (in mM): 140 NaCl, 3 KCl, 1 CaCl2, 1 MgCl2, 0.1 CdCl2, 20 TEA-Cl, 5 HEPES, adjusted to pH 7.3, Osmolality: ∼320 mOsm.
(§4) All electrophysiological experiments were conducted on Qpatch-16 or QPatch HT instruments using QPlate™ chips. For a detailed description of the instrument and the patch-clamp chips see [37], [38]. Data were sampled at a frequency of 25 kHz and filtered at 5 kHz. […] The amplifier was controlled and the data were collected by the Sophion QPatch client software. For initial data analysis the QPatch software was used. Built-in amplifiers provide an improved method for series resistance compensation. Leak subtraction (based on a standard P/n protocol) was used to subtract the capacitive component of currents.
From this protocol we extracted five parameters, as illustrated in Figure 1A. We calculated inhibition of a single “cc” concentration: Inh = (amplitudectr – amplitudedrug)/amplitudectr.

[2] = molecular target: T1, rNav1.2 sodium channels (HEK-293 cells); assay: steady-state inactivation protocol (availability curves), QPatch automated patch-clamp; assay type: cell-based
Source text: as §1
Standard steady-state inactivation protocols were used to measure the shift of steady-state availability curve caused by the drugs. Currents were evoked by a 10 ms test pulse to −10 mV, preceded by 400 ms pre-pulses from −150 to −30 mV. […] Because the inhibition at hyperpolarized potentials (Inh−150), and the shift of the availability curves (ΔV1/2) are both concentration-dependent properties, we calculated affinities to hyperpolarized and depolarized states (“resting state affinity”: Kr, and “inactivated state affinity”: Ki), which, on the other hand, are concentration-independent characteristics of individual drugs. Calculation of Kr and Ki values are described in Materials and Methods, and illustrated in Figure 1E. State-dependence (SD) was quantified as the ratio Kr/Ki.
as §2, §3, §4
Inactivated affinity (Ki) values were calculated assuming a simple four-state model of drug binding and channel gating, using two separate methods: (1) from the shift of the availability curve (ΔV1/2), the slope of the Boltzmann fit of the availability curve (k) and Kr, using the formula described by Bean, Cohen and Tsien (Ki−ΔV1/2; see Figure 1E), or (2) from the apparent affinity (Kapp) at a certain pre-pulse potential, which was calculated from the inhibition (e.g. Inh−60) as described above, and the availability (h) at the same pre-pulse potential, using the formula from Kuo and Bean (Figure 1E). […] (Arithmetic means and SEM values are given in Results S7.)

[3] = human plasma, cited from earlier work
[4] = HEK293, 100 μM, −90 mV holding potential, 5 Hz train, read-out: Inh (inhibited fraction)
[5] = HEK293, calculated from Inh at single concentration 100 μM, 5 Hz train, read-out: IC50
[6] = HEK293, 100 µM, read-out: Inh (inhibited fraction) at holding potential −150 mV
[7] = arithmetic mean, 100 µM, read-out: Ki-Kapp arith
[8] = arithmetic mean, 100 µM, read-out: Ki-ΔV1/2 arith
[9] = arithmetic mean, 100 µM, read-out: Kr arith
[10] = geometric mean, from Inh at −150 mV, 100 µM, read-out: Kr (resting state affinity)
[11] = geometric mean, from apparent affinity, 100 µM, read-out: Ki−Kapp (inactivated state affinity)
[12] = geometric mean, from shift of availability curve, 100 µM, read-out: Ki−ΔV1/2 (inactivated state affinity)
[13] = HEK293, 300 μM, −90 mV holding potential, 5 Hz train, read-out: Inh (inhibited fraction)
[14] = HEK293, calculated from Inh at single concentration 300 μM, 5 Hz train, read-out: IC50

Compound: CC(NC(C)(C)C)C(=O)c1cccc(Cl)c1 (stereo not shown) [BPR, Bupropion]
- τon ([1]; 100 μM): 4.6 s
- UD (use-dependence of the inhibition) ([1]; 100 μM, 5 Hz train): 1.04
- τoff ([1]; 100 μM): 12.45 s
- Rev (reversibility) ([1]; 100 μM): 0.92
- inhibition at 100 µM [1, 4]: 15%
- potency estimated from few doses [1, 5]: 565 µM
- inhibition at 100 µM [2, 6]: 16%
- pKi [2, 7]: 4.56
- pKi [2, 8]: 4.54
- pKd [2, 9]: 3.13
- pKd [2, 10]: 3.22
- pKi [2, 11]: 4.59
- pKi [2, 12]: 4.59

Compound: CN(C)CC/C=C1/c2ccccc2Sc2ccc(Cl)cc21 [CHX, Chlorprothixene]
- τon ([1]; 30 μM): 7.24 s
- UD (use-dependence of the inhibition) ([1]; 30 μM, 5 Hz train): 1.25
- τoff ([1]; 30 μM): 14.41 s
- Rev (reversibility) ([1]; 30 μM): 0.18
- inhibition at 30 µM ([1]; HEK293, 30 μM, −90 mV holding potential, 5 Hz train, read-out: Inh (inhibited fraction)): 28%
- potency estimated from few doses ([1]; HEK293, calculated from Inh at single concentration 30 μM, 5 Hz train, read-out: IC50): 42.5 µM
- ΔV1/2 (shift of availability curve) ([2]; 30 μM): −15.8 mV
- inhibition at 30 µM ([2]; HEK293, 30 µM, read-out: Inh (inhibited fraction) at holding potential −150 mV): 20%
- pKi ([2]; arithmetic mean, 30 µM, read-out: Ki-Kapp arith): 5.66
- pKi ([2]; arithmetic mean, 30 µM, read-out: Ki-ΔV1/2 arith): 5.94
- pKd ([2]; arithmetic mean, 30 µM, read-out: Kr arith): 3.84
- pKd ([2]; geometric mean, from Inh at −150 mV, 30 µM, read-out: Kr (resting state affinity)): 3.89
- pKi ([2]; geometric mean, from apparent affinity, 30 µM, read-out: Ki−Kapp (inactivated state affinity)): 5.76
- pKi ([2]; geometric mean, from shift of availability curve, 30 µM, read-out: Ki−ΔV1/2 (inactivated state affinity)): 6.14
- plasma conc. ([3]; as printed in each cell): 0.07 [50] µg/ml
- plasma conc. ([3]; as printed in the µg/ml cell): 0.200 µM

Compound: CN1CCN(C2=Nc3cc(Cl)ccc3Nc3ccccc32)CC1 [CLZ, Clozapine]
- plasma conc. ([3]; as printed in each cell): 0.55 [44] µg/ml
- plasma conc. ([3]; as printed in the µg/ml cell): 1.671 µM

Compound: C#CCN(C)[C@H](C)Cc1ccccc1 [DPR, R-(-)-Deprenyl]
- IC50 compared to plasma concentration [1]: exceedingly high
- Inh (inhibited fraction) ([1]; 300 μM, −90 mV holding potential, 5 Hz train): 0.22

Compound: Fc1ccc(C(c2ccc(F)cc2)N2CCN(C/C=C/c3ccccc3)CC2)cc1 [FLR, Flunarizine]
- plasma conc. ([3]; as printed in each cell): 0.06 [58] µg/ml
- plasma conc. ([3]; as printed in the µg/ml cell): 0.113 µM

Compound: CNCCC(Oc1ccc(C(F)(F)F)cc1)c1ccccc1 (stereo not shown) [FLX, Fluoxetine]
- plasma conc. ([3]; as printed in each cell): 0.38 [44] µg/ml
- plasma conc. ([3]; as printed in the µg/ml cell): 1.099 µM

Compound: NCC1(CC(=O)O)CCCCC1 [GAB, Gabapentin]
- potency estimated from few doses ([1]; HEK293, read-out: IC50, calculated from Inh at single concentration 300 μM, 5 Hz train): 14700 µM
- inhibition at 300 µM ([1]; HEK293, read-out: Inh (inhibited fraction)): 3%
- plasma conc. ([3]; as printed in each cell): 4 [44] µg/ml
- plasma conc. ([3]; as printed in the µg/ml cell): 23.359 µM

Compound: O=C(CCCN1CCC(O)(c2ccc(Cl)cc2)CC1)c1ccc(F)cc1 [HAL, Haloperidol]
- plasma conc. ([3]; as printed in each cell): 0.02 [44] µg/ml
- plasma conc. ([3]; as printed in the µg/ml cell): 0.053 µM

Compound: O=C(NCCN1CCOCC1)c1ccc(Cl)cc1 [MCL, Moclobemide]
- inhibition at 100 µM [1, 4]: 9%
- potency estimated from few doses [1, 5]: 1010 µM
- plasma conc. ([3]; as printed in each cell): 0.29 [49] µg/ml

Compound: CNC1(C)C2CCC(C2)C1(C)C (stereo not shown) [MEC, Mecamylamine]
- IC50 compared to plasma concentration [1]: exceedingly high
- inhibition at 100 µM [1, 4]: 5%
- potency estimated from few doses [1, 5]: 2760 µM
- plasma conc. ([3]; as printed in each cell): 0.02 [60] µg/ml
- plasma conc. ([3]; as printed in the µg/ml cell): 0.118 µM

Compound: CN1CCN2c3ccccc3Cc3ccccc3C2C1 (stereo not shown) [MIA, Mianserin]
- plasma conc. ([3]; as printed in each cell): 0.01 [47] µg/ml
- plasma conc. ([3]; as printed in the µg/ml cell): 0.037 µM

Compound: CNCCCC12CCC(c3ccccc31)c1ccccc12 [MPR, Maprotiline]
- plasma conc. ([3]; as printed in each cell): 0.25 [45] µg/ml
- plasma conc. ([3]; as printed in the µg/ml cell): 0.797 µM

Compound: CN1CCN2c3ncccc3Cc3ccccc3C2C1 (stereo not shown) [MRZ, Mirtazapine]
- τon ([1]; 100 μM): 3.99 s
- UD (use-dependence of the inhibition) ([1]; 100 μM, 5 Hz train): 1.14
- τoff ([1]; 100 μM): 7.47 s
- Rev (reversibility) ([1]; 100 μM): 0.89
- inhibition at 100 µM [1, 4]: 43%
- potency estimated from few doses [1, 5]: 132 µM
- inhibition at 100 µM [2, 6]: 24%
- pKi [2, 7]: 5.10
- pKi [2, 8]: 5.25
- pKd [2, 9]: 3.50
- pKd [2, 10]: 3.50
- pKi [2, 11]: 5.12
- pKi [2, 12]: 5.25

Compound: O=C(CCNNC(=O)c1ccncc1)NCc1ccccc1 [NIA, Nialamide]
- inhibition at 100 µM [1, 4]: 3%
- potency estimated from few doses [1, 5]: 3230 µM

Compound: CCN(CC)CCNC(=O)c1ccc(N)cc1 [PRC, Procainamide]
- inhibition at 300 µM [1, 13]: 14%
- potency estimated from few doses [1, 14]: 2010 µM

Compound: CN[C@H]1CC[C@@H](c2ccc(Cl)c(Cl)c2)c2ccccc21 [SRT, Sertraline]
- plasma conc. ([3]; as printed in each cell): 0.14 [44] µg/ml
- plasma conc. ([3]; as printed in the µg/ml cell): 0.409 µM

Compound: CCN(CC)CCNC(=O)c1cc(S(C)(=O)=O)ccc1OC [TIA, Tiapride]
- inhibition at 300 µM [1, 13]: 7%
- potency estimated from few doses [1, 14]: 3990 µM
- plasma conc. ([3]; as printed in each cell): 0.56 [51] µg/ml
- plasma conc. ([3]; as printed in the µg/ml cell): 1.535 µM

Compound: CC1(C)O[C@@H]2[C@@H](CO[C@@]3(COS(N)(=O)=O)OC(C)(C)O[C@@H]23)O1 [TOP, Topiramate]
- inhibition at 300 µM [1, 13]: 7%
- potency estimated from few doses [1, 14]: 3990 µM
- plasma conc. ([3]; as printed in each cell): 5.5 [44] µg/ml
- plasma conc. ([3]; as printed in the µg/ml cell): 16.21 µM

Compound: O=c1n(CCCN2CCN(c3cccc(Cl)c3)CC2)nc2ccccn12 [TRZ, Trazodone]
- plasma conc. ([3]; as printed in each cell): 1.5 [44] µg/ml
- plasma conc. ([3]; as printed in the µg/ml cell): 3.673 µM

Compound: NS(=O)(=O)Cc1noc2ccccc12 [ZON, Zonisamide]
- inhibition at 300 µM [1, 13]: 9%
- potency estimated from few doses [1, 14]: 3030 µM
- plasma conc. ([3]; as printed in each cell): 28.4 [44] µg/ml
- plasma conc. ([3]; as printed in the µg/ml cell): 133.82 µM
